{"source": "patent US4129565A", "about": "“Isocarbostyril derivatives” (priority 1975, dated 1978)", "key": {"in vivo": {"assay": "in vivo", "conditions": "mouse, iv", "procedure": "With respect to acute toxicity of the isocarbostyril derivatives of the general formula (I), experiments were carried out to obtain the LD50 values of the compounds."}, "[1]": {"target": "T1, isolated guinea-pig tracheas (β2) (Cavia porcellus, UniProt Q8K4Z4)", "T1 construct": "isolated guinea-pig tracheas; from tissue; host or cells: isolated guinea-pig tracheas", "T1 sequence (Q8K4Z4 whole entry)": "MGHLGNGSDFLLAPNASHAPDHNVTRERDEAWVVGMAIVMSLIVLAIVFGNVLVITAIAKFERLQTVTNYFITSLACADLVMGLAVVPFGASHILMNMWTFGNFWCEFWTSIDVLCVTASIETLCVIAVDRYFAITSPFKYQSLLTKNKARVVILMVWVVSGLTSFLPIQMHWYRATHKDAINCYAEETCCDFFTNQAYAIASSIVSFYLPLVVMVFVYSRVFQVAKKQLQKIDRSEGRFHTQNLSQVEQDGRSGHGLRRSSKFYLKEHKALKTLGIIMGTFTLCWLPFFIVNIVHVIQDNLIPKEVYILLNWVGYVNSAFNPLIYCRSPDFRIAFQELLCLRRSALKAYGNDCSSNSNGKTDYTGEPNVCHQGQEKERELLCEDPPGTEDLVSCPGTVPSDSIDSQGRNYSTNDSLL", "assay": "β-adrenergic blocking effect: antagonism of isoproterenol stimulation in isolated guinea-pig tracheas"}, "[2]": {"test_system": "reserpine-treated anaesthetized rats", "assay": "Intrinsic heart stimulating effect in reserpine-treated anaesthetized rats", "assay_type": "in vivo, rat", "procedure": "Intrinsic heart stimulating effects of the compounds of the invention were also determined using reserpine-treated anaesthetized rats."}, "[3]": {"target": "T2, isolated guinea-pig atria (β1) (Cavia porcellus, UniProt H0W3H1)", "T2 construct": "isolated guinea-pig atria; from tissue; host or cells: isolated guinea-pig atria", "T2 sequence (H0W3H1 1-470)": "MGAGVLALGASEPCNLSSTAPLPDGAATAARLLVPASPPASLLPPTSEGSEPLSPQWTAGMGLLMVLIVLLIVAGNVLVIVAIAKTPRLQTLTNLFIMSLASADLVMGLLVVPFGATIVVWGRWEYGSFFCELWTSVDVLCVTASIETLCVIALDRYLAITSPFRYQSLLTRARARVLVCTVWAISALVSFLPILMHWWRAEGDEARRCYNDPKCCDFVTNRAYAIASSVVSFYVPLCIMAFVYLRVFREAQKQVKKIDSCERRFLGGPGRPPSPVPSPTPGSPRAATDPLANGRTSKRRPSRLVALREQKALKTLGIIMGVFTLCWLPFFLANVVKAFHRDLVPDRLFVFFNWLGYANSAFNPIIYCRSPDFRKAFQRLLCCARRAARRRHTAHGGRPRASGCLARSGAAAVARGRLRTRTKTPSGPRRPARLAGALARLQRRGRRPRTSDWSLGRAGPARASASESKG", "assay": "β-adrenergic blocking effect: antagonism of isoproterenol stimulation in isolated guinea-pig atria"}}, "note": "Where a name gives a salt, the structure may show the parent alone.", "data": [{"smiles": "CC(C)NCC(O)COc1cn(C)c(=O)c2ccccc12", "note": "(stereo not drawn) [Example 1, 4-(3-isopropylamino-2-hydroxy)propoxy-2-methylisocarbostyrilhydrochloride]", "values": [{"measurement": "LD50", "setting": "in vivo", "value": 105, "unit": "mg/kg"}, {"measurement": "β-adrenergic blocking activity (Relative potency) trachea (β2)", "setting": "[1]", "value": 0.44}, {"measurement": "Intrinsic heart stimulation", "setting": "[2]", "value": 0}, {"measurement": "β-adrenergic blocking activity (Relative potency) atria (β1)", "setting": "[3]", "value": 3.2}]}, {"smiles": "Cn1cc(OCC(O)CNC(C)(C)C)c2ccccc2c1=O", "note": "(stereo not drawn) [Example 2, 4-(3-tert.-butylamino-2-hydroxy)propoxy-2-methylisocarbostyril hydrochloride]", "values": [{"measurement": "LD50", "setting": "in vivo", "value": 119, "unit": "mg/kg"}, {"measurement": "β-adrenergic blocking activity (Relative potency) trachea (β2)", "setting": "[1]", "value": 0.52}, {"measurement": "Intrinsic heart stimulation", "setting": "[2]", "value": 0}, {"measurement": "β-adrenergic blocking activity (Relative potency) atria (β1)", "setting": "[3]", "value": 2.5}]}, {"smiles": "CCC(C)NCC(O)COc1cn(C)c(=O)c2ccccc12", "note": "(stereo not drawn) [Example 3, 4-(3-sec.-butylamino-2-hydroxy)propoxy-2-methyl isocarbostyril hydrochloride]", "values": [{"measurement": "LD50", "setting": "in vivo", "value": 120, "unit": "mg/kg"}, {"measurement": "β-adrenergic blocking activity (Relative potency) trachea (β2)", "setting": "[1]", "value": 0.05}, {"measurement": "Intrinsic heart stimulation", "setting": "[2]", "value": 0}, {"measurement": "β-adrenergic blocking activity (Relative potency) atria (β1)", "setting": "[3]", "value": 4.5}]}, {"smiles": "Cn1cc(OCC(O)CNCc2ccccc2)c2ccccc2c1=O", "note": "(stereo not drawn) [Example 7, 4-(3-benzylamino-2-hydroxy)propoxy-2-methylisocarbostyril hydrochloride]", "values": [{"measurement": "LD50", "setting": "in vivo", "value": 120, "unit": "mg/kg"}]}, {"smiles": "Cn1cc(OCC(O)CNC2CCCCC2)c2ccccc2c1=O", "note": "(stereo not drawn) [Example 8, 4-(3-cyclohexylamino-2-hydroxy)propoxy-2-methylisocarbostyril hydrochlorid]", "values": [{"measurement": "LD50", "setting": "in vivo", "value": 80, "unit": "mg/kg"}]}, {"smiles": "Cn1cc(OCC(O)CN2CCCCC2)c2ccccc2c1=O", "note": "(stereo not drawn) [Example 9, 4-(3-piperidino-2-hydroxy)propoxy-2-methylisocarbostyril hydrochloride]", "values": [{"measurement": "LD50", "setting": "in vivo", "value": 200, "unit": "mg/kg"}]}, {"smiles": "CCCCN(C)CC(O)COc1cn(C)c(=O)c2ccccc12", "note": "(stereo not drawn) [Example 11, 4-(3-N-methyl-butylamino-2-hydroxy) propoxy-2-methyl isocarbostyril]", "values": [{"measurement": "LD50", "setting": "in vivo", "value": 143, "unit": "mg/kg"}]}, {"smiles": "CN1CCN(CC(O)COc2cn(C)c(=O)c3ccccc23)CC1", "note": "(stereo not drawn) [Example 12, 4-(3-N-methylpiperazino-2-hydroxy) propoxy-2-methyl isocarbostyril]", "values": [{"measurement": "LD50", "setting": "in vivo", "value": 270, "unit": "mg/kg"}]}, {"smiles": "CC[N+](C)(CC)CC(O)COc1cn(C)c(=O)c2ccccc12", "note": "(stereo not drawn) [Example 13, 4-(3-diethylamino-2-hydroxy)propoxy-2-methyl isocarbostyril methoiodide]", "values": [{"measurement": "LD50", "setting": "in vivo", "value": 15.2, "unit": "mg/kg"}]}, {"smiles": "CC(C)[N+](C)(C)CC(O)COc1cn(C)c(=O)c2ccccc12", "note": "(stereo not drawn) [Example 14]", "values": [{"measurement": "LD50", "setting": "in vivo", "value": "< 20", "unit": "mg/kg"}]}, {"smiles": "CC[N+](C)(C)CC(O)COc1cn(C)c(=O)c2ccccc12", "note": "(stereo not drawn) [Example 15, 4-(3-dimethylamino-2-hydroxy)propoxy-2-methyl isocarbostyril ethoiodide]", "values": [{"measurement": "LD50", "setting": "in vivo", "value": 16.7, "unit": "mg/kg"}]}, {"smiles": "CC(C)NCC(O)COc1cccc2ccccc12", "note": "(stereo not drawn) [Propranolol, propranolol, reference compound]", "values": [{"measurement": "Intrinsic heart stimulation", "setting": "[2]", "value": 0}]}, {"smiles": "CCCNCC(O)COc1cn(C)c(=O)c2ccccc12", "note": "(stereo not drawn) [R3=H, R4=n-C3 H7]", "values": [{"measurement": "LD50", "setting": "in vivo", "value": 115, "unit": "mg/kg"}]}, {"smiles": "CCCCNCC(O)COc1cn(C)c(=O)c2ccccc12", "note": "(stereo not drawn) [R3=H, R4=n-C4 H9]", "values": [{"measurement": "LD50", "setting": "in vivo", "value": 105, "unit": "mg/kg"}]}, {"smiles": "CCCCCCNCC(O)COc1cn(C)c(=O)c2ccccc12", "note": "(stereo not drawn) [R3=H, R4=n-C6 H13]", "values": [{"measurement": "LD50", "setting": "in vivo", "value": 69, "unit": "mg/kg"}]}]}
